Patent publication US11753445B2, “Therapeutic peptides” (COHBAR, INC., priority 2016, dated 2023)

Columns and labels:
[1] = Stability in mouse plasma, peptides 10 uM (Example 15); format: in vitro ADME; conditions: mouse plasma 37° C., peptide 10 uM; for remaining at 0.25 h, 10 uM / remaining at 0.5 h, 10 uM / remaining at 1 h, 10 uM / remaining at 2 h, 10 uM / remaining at 3 h, 10 uM: pooled mouse plasma; for remaining at 0.25 h, 10 uM: 15 min, read-out: % Remaining at Each Time Point: 15 min; for remaining at 0.5 h, 10 uM: 30 min, read-out: % Remaining at Each Time Point: 30 min; for remaining at 1 h, 10 uM: 60 min, read-out: % Remaining at Each Time Point: 60 min; for remaining at 2 h, 10 uM: 120 min, read-out: % Remaining at Each Time Point: 120 min; for remaining at 3 h, 10 uM: 180 min, read-out: % Remaining at Each Time Point: 180 min
Method: (§1) Peptides (10 uM) were incubated in pooled mouse plasma at 37° C. and samples were removed and immediately analyzed for the concentration of intact peptide by LC/MS/MS over the course of 3 hours. The percent of peptide remaining in plasma at each time point was calculated relative to the initial peak area (Table 13).

3T3-L1 Adipocytes [2] = experiment: Free fatty acid levels in cultured mouse 3T3-L1 adipocytes, forskolin stimulated (Example 3); format: cell-based; conditions: forskolin 1 μM; for Free Fatty Acid Levels in 3T3-L1 Adipocytes Expressed as a Percent of Forskolin Control: Percent of Control Value: test peptides 25 μM
Outline: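 Mouse 3T3-L1 cells differentiated 12–17 days, then exposed to test peptides (25 μM) for 18–20 h, fresh peptide 1 h, then 3 h with 1 μM forskolin. Free fatty acids in medium read colorimetrically at 540 nm. Values background-corrected and expressed relative to forskolin-only cells.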

Human Primary Adipocytes = experiment: Free fatty acid levels in cultured human primary adipocytes, isoproterenol stimulated (Example 4); format: cell-based; conditions: isoproterenol 1 nM; for Free Fatty Acid Levels in Human Primary Adipocytes Expressed as a Percent of Isoproterenol Control: Percent of Control Value: test peptides 25 μM
Method: Human primary adipocytes were seeded at 5,000-100,000 cells per well on 96-well, 48-well, or 24-well plates in Pre-adipocyte Medium (Zen-Bio, Durham, N.C.) and grown to confluence at 37° C. in a humidified atmosphere of 5% CO2/95% air. Two days after confluence, cells were placed in Adipocyte Differentiation Medium (Zen-Bio, Durham, N.C.) and cultured for three additional days at 37° C. in a humidified atmosphere of 5% CO2/95% air. The culture media was then replaced with Adipocyte Maintenance Medium (Zen-Bio) and the cells were maintained for an additional 11-21 days at 37° C. in a humidified atmosphere of 5% CO2/95% air with partial medium replacement every other day. Following 14-24 days of differentiation, test peptides were added at a final concentration of 25 μM and incubated for 18-20 hours in Adipocyte Maintenance Medium at 37° C. in a humidified atmosphere of 5% CO2/95%. After 18-20 hours, the media was exchanged with fresh Adipocyte Maintenance Medium containing test peptides and incubated for 1 h at 37° C. in a humidified atmosphere of 5% CO2/95%. After 1 h media was exchanged with Assay Buffer (Zen-Bio) containing isoproterenol (1 nM) (added to all samples except untreated controls) and test peptides. Cells were incubated for a further 3 hours at 37° C. in a humidified atmosphere of 5% CO2/95%. Free fatty acid concentrations in the media were determined using a Free Fatty Acid Assay Kit (Zen-Bio) according to the manufacturer's instructions using a plate reader (540 nm). Absorbance values were corrected for untreated background and expressed relative to isoproterenol treated cells. Treatment with isoproterenol (1 nM) alone was used as the free fatty acid level stimulatory control. The relative standard deviation of the isoproterenol control was <14%. […] Free fatty acid levels for insulin (100 nM) treatment were <5% of the isoproterenol control value.

[3] = Stability in monkey plasma (Example 16); format: in vitro ADME; conditions: Monkey plasma 37° C., peptide 10 uM; for remaining at 1 h, 10 uM: 60 min, read-out: % Remaining at Each Time Point: 60 min; for remaining at 2 h, 10 uM: 120 min, read-out: % Remaining at Each Time Point: 120 min; for remaining at 3 h, 10 uM: 180 min, read-out: % Remaining at Each Time Point: 180 min
[4] = Stability in human plasma (Example 16); format: in vitro ADME; conditions: Human plasma 37° C., peptide 10 uM; for remaining at 1 h, 10 uM / remaining at 2 h, 10 uM / remaining at 3 h, 10 uM: pooled human plasma; for remaining at 1 h, 10 uM: 60 min, read-out: % Remaining at Each Time Point: 60 min; for remaining at 2 h, 10 uM: 120 min, read-out: % Remaining at Each Time Point: 120 min; for remaining at 3 h, 10 uM: 180 min, read-out: % Remaining at Each Time Point: 180 min
Method: as §1, with “mouse or human” for “mouse”, “14).” for “13).”

3T3-L1 Adipocytes [5] = experiment: Free fatty acid levels in cultured mouse 3T3-L1 adipocytes, isoproterenol stimulated (Example 17); format: cell-based; conditions: insulin 100 nM; 3T3-L1 adipocytes; isoproterenol 1 nM
Method: Mouse 3T3-L1 cells were seeded at a density between 1,000-20,000 cells per well on 96-well, 48-well, or 24-well plates in Pre-adipocyte Medium (Zen-Bio, Durham, N.C.) and grown to confluence at 37° C. in a humidified atmosphere of 5% CO2/95% air. Two days after confluence, cells were placed in Adipocyte Differentiation Medium (Zen-Bio, Durham, N.C.) and cultured for three additional days at 37° C. in a humidified atmosphere of 5% CO2/95% air. The culture media was then replaced with Adipocyte Maintenance Medium (Zen-Bio) and the cells were maintained for an additional 9-14 days at 37° C. in a humidified atmosphere of 5% CO2/95% air with partial medium replacement every other day. Following 12-17 days of differentiation, test peptides were added at a final concentration of 25-50 μM and incubated for 18-20 hours in Adipocyte Maintenance Medium at 37° C. in a humidified atmosphere of 5% CO2/95%. After the media incubation, media was removed and exchanged with Assay Buffer (Zen-Bio) containing isoproterenol (1 nM) (added to all samples except untreated controls) and the test peptides. Cells were incubated for a further 3 hours at 37° C. in a humidified atmosphere of 5% CO2/95%. Free fatty acid concentrations in the media were determined using a Free Fatty Acid Assay Kit (Zen-Bio) according to the manufacturer's instructions using a plate reader (540 nm).
Absorbance values were corrected for untreated background and expressed relative to isoproterenol treated cells. Treatment with isoproterenol (1 nM) alone was used as the free fatty acid level stimulatory control. The relative standard deviation of the isoproterenol control was <10%. […] Free fatty acid levels for insulin (100 nM) treatment were <5% of the isoproterenol control value.

Substance: H-RWQEMQYIFYPR-OH [compound 211]
- % Remaining at Each Time Point: 0 min [1]: 100%
- remaining at 0.25 h, 10 uM [1]: 85.2%
- remaining at 0.5 h, 10 uM [1]: 72.8%
- remaining at 1 h, 10 uM [1]: 52.3%
- remaining at 2 h, 10 uM [1]: 30.3%
- remaining at 3 h, 10 uM [1]: 17.9%
- Free Fatty Acid Levels in 3T3-L1 Adipocytes Expressed as a Percent of Forskolin Control: Percent of Control Value (3T3-L1 Adipocytes [2]): 33.7%
- Free Fatty Acid Levels in Human Primary Adipocytes Expressed as a Percent of Isoproterenol Control: Percent of Control Value (Human Primary Adipocytes): 79.9%

Substance: H-MRWQEMNYIFYPR-OH [compound 208]
- % Remaining at Each Time Point: 0 min [1]: 100%
- remaining at 0.25 h, 10 uM [1]: 77%
- remaining at 0.5 h, 10 uM [1]: 51.8%
- remaining at 1 h, 10 uM [1]: 21%
- remaining at 2 h, 10 uM [1]: 3.94%
- remaining at 3 h, 10 uM [1]: 1.09%
- Free Fatty Acid Levels in 3T3-L1 Adipocytes Expressed as a Percent of Forskolin Control: Percent of Control Value (3T3-L1 Adipocytes [2]): 62.4%
- Free Fatty Acid Levels in Human Primary Adipocytes Expressed as a Percent of Isoproterenol Control: Percent of Control Value (Human Primary Adipocytes): 70.9%
- % Remaining at Each Time Point: 0 min [3]: 100%
- remaining at 1 h, 10 uM [3]: 106%
- remaining at 2 h, 10 uM [3]: 89%
- remaining at 3 h, 10 uM [3]: 68%
- % Remaining at Each Time Point: 0 min [4]: 100%
- remaining at 1 h, 10 uM [4]: 105%
- remaining at 2 h, 10 uM [4]: 86.6%
- remaining at 3 h, 10 uM [4]: 85.4%

Substance: H-MRWQEMGYIFYPRKLA-OH [compound 21]
- Free Fatty Acid Levels in 3T3-L1 Adipocytes Expressed as a Percent of Forskolin Control: Percent of Control Value (3T3-L1 Adipocytes [2]): 56.0%
- Free Fatty Acid Levels in Human Primary Adipocytes Expressed as a Percent of Isoproterenol Control: Percent of Control Value (Human Primary Adipocytes): 88.9%

Substance: H-MRWQEMQYIFYPRALR-OH [compound 219]
- Free Fatty Acid Levels in 3T3-L1 Adipocytes Expressed as a Percent of Forskolin Control: Percent of Control Value (3T3-L1 Adipocytes [2]): 41.5%
- Free Fatty Acid Levels in Human Primary Adipocytes Expressed as a Percent of Isoproterenol Control: Percent of Control Value (Human Primary Adipocytes): 69.4%

Substance: Insulin [reference compound]
- Free fatty acid levels, % of the forskolin control value (3T3-L1 Adipocytes [2]; insulin 100 nM, 3T3-L1 adipocytes): < 9%
- Free fatty acid levels, % of the isoproterenol control value (Human Primary Adipocytes; insulin 100 nM, human primary adipocytes): < 5%
- Free fatty acid levels, % of the isoproterenol control value (3T3-L1 Adipocytes [5]): < 5%

Substance: H-MRWQEMGYIFYPRKLR-OH [compound 2]
- % Remaining at Each Time Point: 0 min [1]: 100%
- remaining at 0.25 h, 10 uM [1]: 78.3%
- remaining at 0.5 h, 10 uM [1]: 38.9%
- remaining at 1 h, 10 uM [1]: 9.6%
- remaining at 2 h, 10 uM [1]: 0.8%
- remaining at 3 h, 10 uM [1]: 0.4%
- Free Fatty Acid Levels in 3T3-L1 Adipocytes Expressed as a Percent of Forskolin Control: Percent of Control Value (3T3-L1 Adipocytes [2]): 59.2%
- Free Fatty Acid Levels in Human Primary Adipocytes Expressed as a Percent of Isoproterenol Control: Percent of Control Value (Human Primary Adipocytes): 107%
- % Remaining at Each Time Point: 0 min [3]: 100%
- remaining at 1 h, 10 uM [3]: 72.8%
- remaining at 2 h, 10 uM [3]: 39.8%
- remaining at 3 h, 10 uM [3]: 23.4%
- % Remaining at Each Time Point: 0 min [4]: 100%
- remaining at 1 h, 10 uM [4]: 56.3%
- remaining at 2 h, 10 uM [4]: 44.7%
- remaining at 3 h, 10 uM [4]: 38.4%

Substance: H-RWQEMNYIFYPR-OH [compound 210]
- % Remaining at Each Time Point: 0 min [1]: 100%
- remaining at 0.25 h, 10 uM [1]: 85.7%
- remaining at 0.5 h, 10 uM [1]: 79.5%
- remaining at 1 h, 10 uM [1]: 61.9%
- remaining at 2 h, 10 uM [1]: 35.4%
- remaining at 3 h, 10 uM [1]: 23%
- Free Fatty Acid Levels in 3T3-L1 Adipocytes Expressed as a Percent of Forskolin Control: Percent of Control Value (3T3-L1 Adipocytes [2]): 29.2%
- Free Fatty Acid Levels in Human Primary Adipocytes Expressed as a Percent of Isoproterenol Control: Percent of Control Value (Human Primary Adipocytes): 75.5%
- % Remaining at Each Time Point: 0 min [3]: 100%
- remaining at 1 h, 10 uM [3]: 105%
- remaining at 2 h, 10 uM [3]: 87.9%
- remaining at 3 h, 10 uM [3]: 77.9%
- % Remaining at Each Time Point: 0 min [4]: 100%
- remaining at 1 h, 10 uM [4]: 106%
- remaining at 2 h, 10 uM [4]: 90.8%
- remaining at 3 h, 10 uM [4]: 95.8%

Substance: H-MRWQEMGYIFYPRNLR-OH [compound 213]
- Free Fatty Acid Levels in 3T3-L1 Adipocytes Expressed as a Percent of Forskolin Control: Percent of Control Value (3T3-L1 Adipocytes [2]): 36.0%
- Free Fatty Acid Levels in Human Primary Adipocytes Expressed as a Percent of Isoproterenol Control: Percent of Control Value (Human Primary Adipocytes): 103%
